Results: patent EP4048276B1, “SOLID PHARMACEUTICAL FORMULATIONS COMPRISING TICAGRELOR” (Santa Farma Ilaç Sanayi A.S., priority 2019, dated 2021)
Converted amounts (≈) assume the structure as drawn. Where two headings read alike, the source gives them in different places.

How the values were obtained:
Type in all cases: physicochemical
[1] = Particle size distribution analysis
Procedure: Moreover, particle size distribution analysis for ticagrelor was performed.

[2] = Solubility study of ticagrelor drug substance in water and pH media
Procedure: (§1) Moreover, this low aqueous solubility of ticagrelor leads to an increase of relevance of particle size. Solubility studies in human intestinal fluids, bulk-tapped density, compressibility index, Hausner ratio, flowability studies of drug substance were performed prior to beginning of the development process of pharmaceutical drug product.

[3] = Bulk/tapped density, compressibility index, Hausner ratio and flowability of drug substance
Procedure: as §1
In addition, bulk density and tapped density values of ticagrelor was investigated. By using the results obtained, compressibility index, Hausner ratio and flowability of drug substance was designated.

D10 [1]: 3.0 µm
D50 [1]: 6.4 µm
D90 [1]: 12.5 µm
solubility ([2]; pH 1.2 medium, pH 1.2, simulated gastric fluid, read-out: Average solubility, pH: 1.2): 14 µg/mL (≈ 26.8 µM)
solubility ([2]; pH 4.5 medium, pH 4.5, aqueous buffer, read-out: Average solubility, pH: 4.5): 6 µg/mL (≈ 11.5 µM)
solubility ([2]; pH 6.8 medium, pH 6.8, aqueous buffer, read-out: Average solubility, pH: 6.8): 5 µg/mL (≈ 9.57 µM)
solubility ([2]; water, read-out: Average solubility, Water): 6 µg/mL (≈ 11.5 µM)
Bulk density [3]: 0.157
Compressibility index [3]: 39%
Flowability [3]: Very poor
Hausner ratio [3]: 1.639
Tapped density [3]: 0.257
SMILES: CCCSc1nc(N[C@@H]2C[C@H]2c2ccc(F)c(F)c2)c2nnn([C@@H]3C[C@H](OCCO)[C@@H](O)[C@H]3O)c2n1 [Ticagrelor, (1S,2S,3R,5S)-3-(7-{[(1R,2S)-2-(3,4-Diflourophenyl)cyclopropyl]amino}-5-(propylsulfanyl)-3H-[1,2,3]triazol[4,5-d]pyrimidine-3-yl)-5-(2-hydroxyethoxy)cyclopentane-1,2-diol]
